Structures can show the parent of a compound that is named as a salt.
Assays:
[1] = system: sodium, potassium, and calcium ion channels; details: in vivo; cited from earlier work
[2] = Budiodarone concentration attainable in hyperconcentrated solutions (Examples 16-18); format: physicochemical
Experimental: The benzyl alcohol/budiodarone tartrate solution is viscous and therefore direct measurement of the budiodarone concentration is difficult. A better way to measure budiodarone concentration in the solution of benzyl alcohol and budiodarone oil or in a hyperconcentrated solution is by using an indirect method. In this example, the volume of the benzyl alcohol/budiodarone mixture was measured, which in turn allowed for the calculation of an accurate budiodarone concentration.
In each of five vials of accurately known volume, budiodarone tartrate (250 mg) and benzyl alcohol (91 μl) were mixed in order to make a 3/1 mixture (mol/mol). Then the solution was mixed thoroughly in order to make a clear solution. This was aided with the help of warming to 50° C. for 3 minutes in order to reduce the viscosity of the mixture. The weight of the vial containing the 3:1 mixture of benzyl alcohol/budiodarone was then recorded. Vial number 1 was filled with silicon oil of density d=0.964 and weighed again. The difference in weight provided the weight of the silicon oil added. This, divided by the density of the silicon oil provided the volume of silicon oil necessary to fill the vial. The difference with the known volume of the vial represents the volume of the benzyl alcohol/budiodarone mixture. To Vial numbers 2, 3, 4, and 5 was added 50, 100, 200, and 400 μl of water, respectively. The contents of the vials were then thoroughly mixed in order to get hyperconcentrated solutions of different volumes and different budiodarone concentrations. The volumes of these hyperconcentrations using silicon oil were measured as described above.
The same experiment as Example 16 was replicated, using mixtures of 5/1 ratio (250 mg of budiodarone tartrate and 152 μl of benzyl alcohol) and various volumes of water added. Using the same procedure as Example 16, a maximum calculated budiodarone concentration of 737 mg/ml and a maximum benzyl alcohol concentration of 45% (v/v) were found.
Similarly, the experiment in Example 16 was replicated, using a 1/1 mixture (250 mg of budiodarone tartrate and 30 μl of benzyl alcohol). A maximum calculated budiodarone concentration of 1,136 mg/ml and a maximum benzyl alcohol concentration of 13.6% (v/v) were found.

[3] = 30 ml of 0.9% benzyl alcohol in saline, estimated from animal studies; cited from earlier work
[4] = Solubility of budiodarone tartrate in water (Example 2); format: physicochemical
Experimental: The aqueous solubility of budiodarone tartrate was measured in pure distilled water. Budiodarone tartrate (250 mg) was suspended in distilled water (10 ml) and the suspension was vortexed on a VWR Genie 2 vortexer at maximum speed for 3×10 sec duration. The suspension was then stirred for 96 hours at room temperature, protected from light. After 96 hours, the suspension was vortexed again and a 1 ml aliquot was centrifuged at 13,000 rpm for 10 minutes to precipitate all insoluble material. A 40 μl aliquot of the clear supernatant was diluted with 960 μl of methanol (25-fold dilution) and was analyzed by HPLC using Conditions 3.
The amount of budiodarone in solution is found to be 7.04 mg/ml. This figure is the solubility of budiodarone tartrate in water.

For `CCN(CC)CCOc1c(I)cc(C(=O)c2c(CC(=O)O)oc3ccccc23)cc1I` [ATI-2000], the “electrophysiological activity of the major metabolite” value [1] is given as “electrophysiologically inactive”.
In the case of `OCc1ccccc1` [benzyl alcohol], the “maximum benzyl alcohol concentration” value ([2]; 1/1 mixture) is reported as 13.6 % (v/v), the “maximum benzyl alcohol concentration” value ([2]; 3:1 molar ratio of benzyl alcohol/budiodarone) is reported as 32.4 % (v/v) and the “maximum benzyl alcohol concentration” value ([2]; 5/1 ratio) is reported as 45 % (v/v). The “amount estimated to be safe by rapid intravenous infusion” value [3] was “approximately 4.5 mg/kg”.
In the case of `CC[C@H](C)OC(=O)Cc1oc2ccccc2c1C(=O)c1cc(I)c(OCCN(CC)CC)c(I)c1` [budiodarone tartrate, (1S)-1-methylpropyl 2-(3-{4-[2-(diethylamino)ethoxy]-3,5-diiodobenzoyl}benzofuran-2-yl)acetate, hydrogen (2R,3R)-2,3-dihydroxybutanedioate], the “degradation products in the clear supernatant” value ([4]; after 96 hours stirring in distilled water at room temperature, HPLC) is reported as “No significant amount of degradation products were detected”, the solubility at 96 h ([4]; distilled water, water, thermodynamic from solid, water, room temperature, read-out: aqueous solubility of budiodarone tartrate) is reported as 7040 µg/mL and the “aqueous solubility of budiodarone tartrate” value ([4]; water, room temperature) is reported as “about 7 mg/ml”.

Reference: patent US20140309296A1, “BUDIODARONE FORMULATIONS” (Armetheon, Inc., priority 2013, published 2014)
